± gives the expanded uncertainty stated by the source.
Assays:
[1] = for Normal melting temperature: DTA
[2] = Molar enthalpy of transition or fusion; details: DSC

Normal melting temperature ([1]; Crystal): 59.00 ± 0.4 °C | Glass transition temperature ([1]; Glass, DSC): -32.00 ± 1 °C | Normal melting temperature ([1]; Metastable crystal): 58.00 ± 0.4 °C | Molar enthalpy of transition or fusion ([2]; Crystal): 6.76 ± 0.454 kcal/mol | Molar enthalpy of transition or fusion ([2]; Metastable crystal): 6.19 ± 0.502 kcal/mol
Structure (SMILES): Cc1ccc(C)c(OCCCC(C)(C)C(=O)O)c1 [gemfibrozil]

Source: the NIST ThermoML archive (doi:10.1016/j.tca.2019.03.026)
